Legend:
Type in all cases: biochemical
[1] = target: T1, Ca/CAM-independent cGMP PDE (Oryctolagus cuniculus, UniProt G1SX67); assay: Phosphodiesterase activity: inhibition of calcium/calmodulin (Ca/CAM)-independent cGMP PDE from rabbit platelets; details: in vitro; Ca/CAM-independent cGMP PDE from rabbit platelets
T1 construct: The PDE enzymes are isolated from rabbit platelets and rat kidney; from tissue; host or cells: rabbit platelets
Description: (§1) Compound affinities for cGMP and cAMP PDEs are assessed by determination of their IC50 value (the concentration of inhibitor required for 50% inhibition of enzyme activity). The PDE enzymes are isolated from rabbit platelets and rat kidney, essentially by the method of W. J. Thompson et al. (Biochem., 1971, 10, 311). The calcium/calmodulin (Ca/CAM)-independentcGMP PDE and the cGMP-inhibited cAMP PDE enzymes are obtained from rabbit platelets whilst, of the four major PDE enzymes of the rat kidney, the Ca/CAM-dependent cGMP PDE (fraction I) is isolated. Assays are performed using a modification of the "batch" method of W. J. Thompson and M. M. Appleman (Biochem., 1979, 18, 5228).

[2] = tested on: Ca/CAM-independent cGMP PDE; assay: as above; details: between Ca/CAM-independent cGMP PDE and cGMP-inhibited cAMP PDE (IC50 cAMP / IC50 cGMP)
Description: as §1

cGMP-inhibited cAMP PDE = target: T2, cGMP-inhibited cAMP PDE (Oryctolagus cuniculus, UniProt G1ST54); assay: Phosphodiesterase activity: inhibition of cGMP-inhibited cAMP PDE from rabbit platelets; details: in vitro
T2 construct: The PDE enzymes are isolated from rabbit platelets and rat kidney; from tissue; host or cells: rabbit platelets
T2 sequence (G1ST54 1-1128): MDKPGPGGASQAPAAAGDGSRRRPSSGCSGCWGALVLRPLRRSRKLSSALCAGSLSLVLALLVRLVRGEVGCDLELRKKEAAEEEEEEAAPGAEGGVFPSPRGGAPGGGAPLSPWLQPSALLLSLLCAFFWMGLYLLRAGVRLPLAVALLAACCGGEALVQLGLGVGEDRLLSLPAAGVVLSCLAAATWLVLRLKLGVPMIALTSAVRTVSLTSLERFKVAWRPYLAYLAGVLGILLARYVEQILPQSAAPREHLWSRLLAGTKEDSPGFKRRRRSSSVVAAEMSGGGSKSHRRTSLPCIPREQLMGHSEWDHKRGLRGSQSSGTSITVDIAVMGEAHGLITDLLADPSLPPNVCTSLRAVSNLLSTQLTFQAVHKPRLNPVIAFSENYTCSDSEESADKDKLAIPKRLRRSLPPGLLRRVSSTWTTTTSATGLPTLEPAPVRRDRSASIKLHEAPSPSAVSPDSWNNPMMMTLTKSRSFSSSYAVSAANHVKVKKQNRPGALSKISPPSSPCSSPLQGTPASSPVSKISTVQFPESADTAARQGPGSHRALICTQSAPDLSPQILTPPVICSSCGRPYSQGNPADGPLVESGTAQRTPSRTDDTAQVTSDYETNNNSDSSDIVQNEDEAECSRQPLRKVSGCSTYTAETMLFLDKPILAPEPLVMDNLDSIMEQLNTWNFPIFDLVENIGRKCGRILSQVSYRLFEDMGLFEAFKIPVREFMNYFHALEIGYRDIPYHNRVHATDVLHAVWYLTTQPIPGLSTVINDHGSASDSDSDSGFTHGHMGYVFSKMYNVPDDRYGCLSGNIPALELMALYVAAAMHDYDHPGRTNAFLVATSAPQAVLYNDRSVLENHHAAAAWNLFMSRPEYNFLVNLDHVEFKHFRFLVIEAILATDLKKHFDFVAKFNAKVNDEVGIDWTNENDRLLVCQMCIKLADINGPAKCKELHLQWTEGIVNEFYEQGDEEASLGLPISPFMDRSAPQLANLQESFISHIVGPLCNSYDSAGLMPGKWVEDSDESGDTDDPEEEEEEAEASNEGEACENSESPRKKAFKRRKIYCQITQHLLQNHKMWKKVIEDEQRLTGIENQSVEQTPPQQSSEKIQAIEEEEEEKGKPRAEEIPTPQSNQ
Description: as §1

Row | SMILES | IC50 [1] [µM] | SELECTIVITY RATIO [2] | IC50 (cGMP-inhibited cAMP PDE) [µM]
1 | CCCc1nn(C)c2c(=O)[nH]c(-c3cc(C(=O)CN4CCN(C(C)=O)CC4)ccc3OCC)nc12 [Example 3, 5-[5-(4-acetyl-1-piperazinyl)acetyl-2-ethoxyphenyl]-1-methyl-3-n-propyl-1,6-dihydro-7H-pyrazolo[4,3-d]pyrimidin-7-one] | 0.0022 | 39,090 | 86
2 | CCCc1nn(C)c2c(=O)[nH]c(-c3cc(C(=O)CN4CCOCC4)ccc3OCC)nc12 [Example 4, 5-(2-ethoxy-5-morpholinoacetylphenyl)-1-methyl-3-n-propyl-1,6dihydro-7H-pyrazolo[4,3-d]pyrimidin-7-one] | 0.0018 | 35,000 | 63
3 | CCCc1nn(C)c2c(=O)[nH]c(-c3cc(C(O)CN4CCOCC4)ccc3OCC)nc12 (centres unmarked) [Example 11] | 0.0049 | 11,632 | 57
4 | CCCOc1ccc(C(=O)CN2CCOCC2)cc1-c1nc2c(CCC)nn(C)c2c(=O)[nH]1 [Example 14, 1-Methyl-5-(5-morpholinoacetyl-2-n-propoxyphenyl)-3-n-propyl-1,6-dihydro-7H-pyrazolo[4,3-d]pyrimidin-7-one] | 0.001 | 57,000 | 57
5 | CCCOc1ccc(C(=O)CN2CCN(C)CC2)cc1-c1nc2c(CCC)nn(C)c2c(=O)[nH]1 [Example 15, 1-Methyl-5-[5-(4-methyl-1-piperazinylacetyl)-2n-propoxyphenyl]-3-n-propyl-1,6-dihydro-7H-pyrazolo [4,3-d]pyrimidin-7-one] | 0.0034 | 22,058 | 75
6 | CCCOc1ccc(C(O)CN2CCOCC2)cc1-c1nc2c(CCC)nn(C)c2c(=O)[nH]1 (centres unmarked) [Example 16, 5-[5-(1-Hyroxy-2-morpholinoethyl)-2-n-propoxyphenyl]-1-methyl-3-n-propyl-1,6-dihydro-7H-pyrazolo[4,3-d]pyrimidin-7-one] | 0.0037 | 14,324 | 53
7 | CCCOc1ccc(/C=C/C(=O)O)cc1-c1nc2c(CCC)nn(C)c2c(=O)[nH]1 [Example 20, (E)-3-(1-Methyl-7-oxo-3-n-propyl-1,6-dihydro-7H-pyrazolo[4,3-d]-pyrimidin-5-yl)-4-n-propoxycinnamic acid] | 0.0037 | 15,945 | 59
8 | CCCc1nn(C)c2c(=O)[nH]c(-c3cc(/C=C/C(=O)N(C)C)ccc3OCC)nc12 [Example 25, (E)-4-Ethoxy-3(1-methyl-3-n-propyl-1,6-dihydro-7H-pyrazolo[4,3-d]-pyrimidin-5-yl)cinnamic acid dimethylamide] | 0.0034 | 24,705 | 84
9 | CCCc1nn(C)c2c(=O)[nH]c(-c3cc(C(=O)O)ccc3OCC)nc12 [Example 29, 4-Ethoxy-3-(-1-methyl-3-n-propyl-1,6-dihydro-7H-pyrazolo[4,3-d]-pyrimidin-5-yl)benzoic acid] | 0.0055 | 15,272 | 84
10 | CCCc1nn(C)c2c(=O)[nH]c(-c3cc(C(=O)N4CCN(C)CC4)ccc3OCC)nc12 [Example 30, 5-[2-Ethoxy-5-(4-methylpiperazinylcarbonyl)phenyl]-1-methyl-3-n-propyl-1,6-dihydro-7H-pyrazolo[4,3-d]-pyrimidin-7-one] | 0.0014 | – | 58
11 | CCCc1nn(C)c2c(=O)[nH]c(-c3cc(-n4ccnc4)ccc3OCC)nc12 [Example 31, 5-[2-Ethoxy-5-(1-imidazolyl)phenyl]-1-methyl-3-n-propyl-1,6-dihydro-7H-pyrazolo[4,3-d]-pyrimidin-7-one] | 0.0034 | 16,470 | 56
12 | CCCc1nn(C)c2c(=O)[nH]c(-c3cc(-c4nccn4C)ccc3OCC)nc12 [Example 32, 5-[2-ethoxy-5-(1-methyl-2-imidazolyl)phenyl]-1methyl-3-n-propyl-1,6-dihydro-7H-pyrazolo[4,3-d]pyrimidin-7-one] | 0.0014 | 27,142 | 38
13 | CCCOc1ccc(COCCO)cc1-c1nc2c(CCC)nn(C)c2c(=O)[nH]1 [Example 39, 5-[5-(2-Hydroxyethoxymethyl)-2-n-propoxyphenyl]-1-methyl-3-n-propyl-1,6-dihydro-7H-pyrazolo[4,3-d]-pyrimidin-7-one] | 0.0053 | 10,188 | 54
